Like-named read-outs stand apart in the source and are kept apart here.
Assay: Solubility of ionic liquid monomers (IL) and their polymers (PIL) in solvents
Format: physicochemical
Conditions: for solubility: 10 mg/ml, IL (monomer), first symbol; for solubility in water: IL monomers
[1] = organic solvent or mixture, ACN, read-out: Solubility (IL/PIL) ACN
[2] = organic solvent or mixture, Acetone, read-out: Solubility (IL/PIL) Acetone
[3] = organic solvent or mixture, DCM, read-out: Solubility (IL/PIL) DCM
[4] = organic solvent or mixture, DMF, read-out: Solubility (IL/PIL) DMF
[5] = organic solvent or mixture, DMSO, read-out: Solubility (IL/PIL) DMSO
[6] = organic solvent or mixture, Ethyl acetate, read-out: Solubility (IL/PIL) Ethyl acetate
[7] = organic solvent or mixture, Hexanes, read-out: Solubility (IL/PIL) Hexanes
[8] = organic solvent or mixture, MeOH, read-out: Solubility (IL/PIL) MeOH
[9] = water, H2O, read-out: Solubility (IL/PIL) H2O

SMILES	solubility [1]	solubility [2]	solubility [3]	solubility [4]	solubility [5]	solubility [6]	solubility [7]	solubility [8]	solubility [9]	solubility in water (water)
C=Cc1cn(CCCCCCCCCC)n[n+]1C [DMVT, 1-Decyl-3-methyl-4-vinyl-triazolium bis(trifluoromethansulfonyl)amide]	> 10000 µg/mL	> 10000 µg/mL	< 10000 µg/mL	> 10000 µg/mL	> 10000 µg/mL	> 10000 µg/mL	< 10000 µg/mL	> 10000 µg/mL	< 10000 µg/mL	
C=Cc1cn(Cc2ccccc2)n[n+]1C [BMVT Tf2N, 1-Benzyl-3-methyl-4-vinyl-triazolium bis(trifluoromethansulfonyl)amide]	> 10000 µg/mL	> 10000 µg/mL	> 10000 µg/mL	> 10000 µg/mL	> 10000 µg/mL	> 10000 µg/mL	< 10000 µg/mL	> 10000 µg/mL	< 10000 µg/mL	
C=Cc1cn(CCO)n[n+]1C [EtOHMVT, 2-(3-Methyl-4vinyl-triazolium-1-yl)ethanol bis(trifluoromethansulfonyl)amide]	> 10000 µg/mL	> 10000 µg/mL	> 10000 µg/mL	> 10000 µg/mL	> 10000 µg/mL	> 10000 µg/mL	< 10000 µg/mL	> 10000 µg/mL	> 10000 µg/mL	soluble

Further lines, results first:

solubility [1]	solubility [2]	solubility [3]	solubility [4]	solubility [5]	solubility [6]	solubility [7]	solubility [8]	solubility [9]	solubility in water (water)	SMILES
> 10000 µg/mL	> 10000 µg/mL	> 10000 µg/mL	> 10000 µg/mL	> 10000 µg/mL	> 10000 µg/mL	< 10000 µg/mL	> 10000 µg/mL	< 10000 µg/mL		C=Cc1cn(CCCCCC)n[n+]1C [HMVT, 1-Hexyl-3-methyl-4-vinyl-triazolium bis(trifluoromethansulfonyl)amide]
> 10000 µg/mL	> 10000 µg/mL	> 10000 µg/mL	> 10000 µg/mL	> 10000 µg/mL	> 10000 µg/mL	< 10000 µg/mL	> 10000 µg/mL	> 10000 µg/mL	soluble	C=Cc1cn(CCOCCOCCOC)n[n+]1C [TEGMVT, 1-TEG-3-methyl-4-vinyl-triazolium bis(trifluoromethansulfonyl)amide]
> 10000 µg/mL	> 10000 µg/mL	> 10000 µg/mL	> 10000 µg/mL	> 10000 µg/mL	> 10000 µg/mL	< 10000 µg/mL	> 10000 µg/mL	< 10000 µg/mL		C=Cc1cn(-c2ccccc2)n[n+]1C [PMVT Tf2N, 1-Phenyl-3-methyl-4-vinyl-triazolium bis(trifluoromethansulfonyl)amide]

Source: patent US9969823B1, “Synthesis and polymerization of vinyl triazolium ionic liquids” (United States Department of Energy, priority 2011, dated 2018)
